≈ marks a conversion by molar mass, not a printed value.
Tests used:
[1] = molecular target: T1, Penicillin-binding protein 1A (Streptococcus pneumoniae serotype 4 (strain ATCC BAA-334 / TIGR4), UniProt Q04707); assay: Displacement of Biocillin FL from Streptococcus pneumoniae 3009 PBP1A
T1 sequence (Q04707 whole entry): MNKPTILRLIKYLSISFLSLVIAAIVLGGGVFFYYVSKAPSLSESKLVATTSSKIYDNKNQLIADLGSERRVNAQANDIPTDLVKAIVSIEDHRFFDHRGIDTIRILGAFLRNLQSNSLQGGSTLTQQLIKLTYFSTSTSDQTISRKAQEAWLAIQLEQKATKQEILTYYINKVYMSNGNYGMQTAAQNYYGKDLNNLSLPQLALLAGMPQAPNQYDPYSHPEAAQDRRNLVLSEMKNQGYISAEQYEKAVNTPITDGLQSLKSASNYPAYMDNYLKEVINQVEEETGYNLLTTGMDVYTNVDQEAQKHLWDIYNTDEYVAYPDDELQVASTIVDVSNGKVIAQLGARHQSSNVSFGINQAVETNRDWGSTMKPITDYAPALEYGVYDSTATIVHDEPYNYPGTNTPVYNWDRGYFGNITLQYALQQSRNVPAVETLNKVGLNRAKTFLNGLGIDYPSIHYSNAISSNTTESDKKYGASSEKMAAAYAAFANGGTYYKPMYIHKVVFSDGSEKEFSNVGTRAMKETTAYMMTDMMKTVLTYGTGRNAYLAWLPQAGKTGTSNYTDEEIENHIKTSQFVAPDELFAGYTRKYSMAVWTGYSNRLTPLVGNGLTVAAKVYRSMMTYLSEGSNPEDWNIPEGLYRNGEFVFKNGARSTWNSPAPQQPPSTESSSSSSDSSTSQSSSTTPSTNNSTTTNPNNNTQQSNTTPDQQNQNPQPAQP

[2] = Displacement of Biocillin FL from Streptococcus pneumoniae 3009 PBP1B
[3] = molecular target: T2, Penicillin-binding protein 2x (Streptococcus pneumoniae serotype 4 (strain ATCC BAA-334 / TIGR4), UniProt P14677); assay: Displacement of Biocillin FL from Streptococcus pneumoniae 1076 PBP2X
T2 sequence (P14677 whole entry): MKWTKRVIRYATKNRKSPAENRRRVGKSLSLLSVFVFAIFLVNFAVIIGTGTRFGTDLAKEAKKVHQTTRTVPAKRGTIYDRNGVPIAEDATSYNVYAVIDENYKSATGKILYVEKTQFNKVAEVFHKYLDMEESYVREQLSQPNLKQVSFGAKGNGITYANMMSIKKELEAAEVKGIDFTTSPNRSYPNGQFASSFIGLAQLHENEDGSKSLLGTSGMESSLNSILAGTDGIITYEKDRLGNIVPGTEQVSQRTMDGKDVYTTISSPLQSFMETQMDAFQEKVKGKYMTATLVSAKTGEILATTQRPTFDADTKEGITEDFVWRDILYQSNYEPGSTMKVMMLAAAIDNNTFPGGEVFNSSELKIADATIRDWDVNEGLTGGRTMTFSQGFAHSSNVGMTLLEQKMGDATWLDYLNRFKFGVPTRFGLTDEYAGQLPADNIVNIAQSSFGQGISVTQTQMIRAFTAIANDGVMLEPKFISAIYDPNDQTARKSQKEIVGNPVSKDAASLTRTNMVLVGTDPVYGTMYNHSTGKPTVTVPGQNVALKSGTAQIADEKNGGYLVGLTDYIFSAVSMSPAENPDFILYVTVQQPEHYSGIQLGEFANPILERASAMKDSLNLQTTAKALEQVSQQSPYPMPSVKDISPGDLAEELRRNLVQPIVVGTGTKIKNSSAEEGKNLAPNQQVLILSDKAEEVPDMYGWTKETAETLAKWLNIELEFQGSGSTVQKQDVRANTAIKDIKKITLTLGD

[4] = system: Streptococcus pneumoniae; assay: Antimicrobial activity against penicillin-resistant Streptococcus pneumoniae 2527 by CLSI method; format: functional
[5] = Displacement of Biocillin FL from Streptococcus pneumoniae 24 PBP2X
[6] = Displacement of Biocillin FL from Streptococcus pneumoniae 3413 PBP1B
[7] = molecular target: T3, Penicillin-binding protein 2B (Streptococcus pneumoniae serotype 4 (strain ATCC BAA-334 / TIGR4), UniProt P0A3M5); assay: Displacement of Biocillin FL from Streptococcus pneumoniae 1077 PBP2B
T3 sequence (P0A3M5 whole entry): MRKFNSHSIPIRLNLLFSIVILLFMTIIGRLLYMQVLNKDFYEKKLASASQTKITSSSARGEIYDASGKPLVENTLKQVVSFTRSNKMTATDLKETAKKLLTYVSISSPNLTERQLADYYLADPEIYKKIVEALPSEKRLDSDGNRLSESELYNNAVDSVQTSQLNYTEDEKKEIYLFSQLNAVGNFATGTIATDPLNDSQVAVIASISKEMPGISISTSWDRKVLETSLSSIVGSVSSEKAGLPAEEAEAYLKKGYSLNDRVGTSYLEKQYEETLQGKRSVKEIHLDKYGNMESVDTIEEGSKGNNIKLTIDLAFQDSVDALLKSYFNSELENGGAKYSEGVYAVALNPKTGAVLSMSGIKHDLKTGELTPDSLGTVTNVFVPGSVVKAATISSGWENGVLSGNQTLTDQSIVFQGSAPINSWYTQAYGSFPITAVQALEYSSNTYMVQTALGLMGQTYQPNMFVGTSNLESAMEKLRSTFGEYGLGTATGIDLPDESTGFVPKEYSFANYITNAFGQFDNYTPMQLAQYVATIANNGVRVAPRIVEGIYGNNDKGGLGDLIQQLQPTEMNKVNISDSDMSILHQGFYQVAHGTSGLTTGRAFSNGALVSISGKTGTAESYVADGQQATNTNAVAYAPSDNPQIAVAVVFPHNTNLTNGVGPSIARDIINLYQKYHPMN

[8] = molecular target: T1, Penicillin-binding protein 1A; assay: Displacement of Biocillin FL from Streptococcus pneumoniae 3243 PBP1A
[9] = molecular target: T1, Penicillin-binding protein 1A; assay: Displacement of Biocillin FL from Streptococcus pneumoniae 2527 PBP1A
[10] = Displacement of Biocillin FL from Streptococcus pneumoniae 3009 PBP3
[11] = molecular target: T1, Penicillin-binding protein 1A; assay: Displacement of Biocillin FL from Streptococcus pneumoniae 3665 PBP1A
[12] = Displacement of Biocillin FL from Streptococcus pneumoniae 2527 PBP1B
[13] = Displacement of Biocillin FL from Streptococcus pneumoniae 3665 PBP1B
[14] = molecular target: T1, Penicillin-binding protein 1A; assay: Displacement of Biocillin FL from Streptococcus pneumoniae 24 PBP1A
[15] = Displacement of Biocillin FL from Streptococcus pneumoniae 24 PBP2A
[16] = Displacement of Biocillin FL from Streptococcus pneumoniae 1076 PBP1B
[17] = system: Streptococcus pneumoniae; assay: Antimicrobial activity against penicillin-intermediate Streptococcus pneumoniae 3665 by CLSI method; format: functional
[18] = Displacement of Biocillin FL from Streptococcus pneumoniae 3665 PBP3
[19] = molecular target: T1, Penicillin-binding protein 1A; assay: Displacement of Biocillin FL from Streptococcus pneumoniae 1077 PBP1A
[20] = molecular target: T3, Penicillin-binding protein 2B; assay: Displacement of Biocillin FL from Streptococcus pneumoniae 2527 PBP2B
[21] = Displacement of Biocillin FL from Streptococcus pneumoniae 3243 PBP1B

Row | Compound | IC50 [1] [nM] | IC50 [2] [µg/mL] | IC50 [3] [nM] | MIC [4] [µg/mL] | IC50 [5] [µg/mL] | IC50 [6] [µg/mL] | IC50 [7] [nM] | IC50 [8] [nM] | IC50 [9] [nM] | IC50 [10] [µg/mL] | IC50 [11] [nM] | IC50 [12] [µg/mL] | IC50 [13] [µg/mL] | IC50 [14] [nM] | IC50 [15] [µg/mL] | IC50 [16] [µg/mL] | MIC [17] [µg/mL] | IC50 [18] [µg/mL] | IC50 [19] [nM] | IC50 [20] [nM] | also measured
1 | CC1(C)S[C@@H]2[C@H](NC(=O)[C@H](N)c3ccc(O)cc3)C(=O)N2[C@H]1C(=O)O [AMOXICILLIN] | 246 | 0.059 (≈ 0.161 µM) | 101 | 1 (≈ 2.74 µM) | 0.117 (≈ 0.32 µM) | 0.035 (≈ 0.0958 µM) | 82.1 | 161 | 134 | 0.047 (≈ 0.129 µM) | 183 | 0.029 (≈ 0.0794 µM) | 0.079 (≈ 0.216 µM) | 10.9 | 0.077 (≈ 0.211 µM) | 0.068 (≈ 0.186 µM) | 0.125 (≈ 0.342 µM) | 0.019 (≈ 0.052 µM) | 46.5 | 90.3 | IC50 [21]: 0.165 µg/mL (≈ 0.452 µM)
2 | CO/N=C(\C(=O)N[C@@H]1C(=O)N2C(C(=O)O)=C(COC(N)=O)CS[C@H]12)c1ccco1 [CEFUROXIME] | 23.6 | 0.024 (≈ 0.0566 µM) | 4.71 | 8 (≈ 18.9 µM) | 0.198 (≈ 0.467 µM) | 0.032 (≈ 0.0754 µM) | 2740 | 14.1 | 14.1 | 0.024 (≈ 0.0566 µM) | 4.71 | 0.028 (≈ 0.066 µM) | 0.016 (≈ 0.0377 µM) | 9.43 | 0.016 (≈ 0.0377 µM) | 0.008 (≈ 0.0189 µM) | 0.125 (≈ 0.295 µM) | 0.047 (≈ 0.111 µM) | 386 | 6230 | IC50 [21]: 0.075 µg/mL (≈ 0.177 µM)
3 | C[C@@H](O)[C@H]1C(=O)N2C(C(=O)O)=C([C@H]3CCCO3)S[C@H]12 [FAROPENEM] | 35 | 0.002 (≈ 0.00701 µM) | 221 | 1 (≈ 3.5 µM) | 0.758 (≈ 2.66 µM) | 0.019 (≈ 0.0666 µM) | 28 | 14 | 80.6 | 0.006 (≈ 0.021 µM) | 105 | 0.002 (≈ 0.00701 µM) | 0.012 (≈ 0.0421 µM) | 31.5 | 0.023 (≈ 0.0806 µM) | 0.002 (≈ 0.00701 µM) | 0.125 (≈ 0.438 µM) | 0.005 (≈ 0.0175 µM) | 52.6 | 35 | IC50 [21]: 0.001 µg/mL (≈ 0.0035 µM)
4 | C[C@@H](O)[C@H]1C(=O)N2C(C(=O)O)=C(SCCNC=N)C[C@H]12 [IMIPENEM ANHYDROUS] | 86.9 | 0.009 (≈ 0.0301 µM) | 197 | 0.25 (≈ 0.835 µM) | 2.048 (≈ 6.84 µM) | 0.316 (≈ 1.06 µM) | 154 | 608 | 140 | 0.039 (≈ 0.13 µM) | 965 | 0.023 (≈ 0.0768 µM) | 0.077 (≈ 0.257 µM) | 1470 | 0.352 (≈ 1.18 µM) | 0.031 (≈ 0.104 µM) | 0.03 (≈ 0.1 µM) | 0.171 (≈ 0.571 µM) | 174 | 207 | IC50 [21]: 0.108 µg/mL (≈ 0.361 µM)
5 | CC1(C)S[C@@H]2[C@H](NC(=O)Cc3ccccc3)C(=O)N2[C@H]1C(=O)O [PENICILLIN G] | 26.9 | 0.001 (≈ 0.00299 µM) | 29.9 | 2 (≈ 5.98 µM) | 0.323 (≈ 0.966 µM) | 0.205 (≈ 0.613 µM) | 111 | 23.9 | 5.98 | 0.001 (≈ 0.00299 µM) | 92.7 | 0.009 (≈ 0.0269 µM) | 0.029 (≈ 0.0867 µM) | 23.9 | 0.133 (≈ 0.398 µM) | 0.007 (≈ 0.0209 µM) | 0.125 (≈ 0.374 µM) | 0.01 (≈ 0.0299 µM) | 26.9 | 287 | IC50 [21]: 0.01 µg/mL (≈ 0.0299 µM)

Source: ChEMBL document CHEMBL1649182, “Binding of faropenem and other beta-lactam agents to penicillin-binding proteins of pneumococci with various beta-lactam susceptibilities” (Antimicrob Agents Chemother, 2009)
